Source: article PMC8069941, “Potential Anticancer Lipoxygenase Inhibitors from the Red Sea-Derived Brown Algae Sargassum cinereum: An In-Silico-Supported In-Vitro Study” (Antibiotics, 2021)

Legend:
5-LOX = biological target: T1, 5-LOX (Homo sapiens, UniProt P09917); assay: 5-LOX inhibition assay (human recombinant enzyme kit); format: biochemical
T1 construct: purchased Cayman Chemical 60,402
T1 sequence (P09917 1-674): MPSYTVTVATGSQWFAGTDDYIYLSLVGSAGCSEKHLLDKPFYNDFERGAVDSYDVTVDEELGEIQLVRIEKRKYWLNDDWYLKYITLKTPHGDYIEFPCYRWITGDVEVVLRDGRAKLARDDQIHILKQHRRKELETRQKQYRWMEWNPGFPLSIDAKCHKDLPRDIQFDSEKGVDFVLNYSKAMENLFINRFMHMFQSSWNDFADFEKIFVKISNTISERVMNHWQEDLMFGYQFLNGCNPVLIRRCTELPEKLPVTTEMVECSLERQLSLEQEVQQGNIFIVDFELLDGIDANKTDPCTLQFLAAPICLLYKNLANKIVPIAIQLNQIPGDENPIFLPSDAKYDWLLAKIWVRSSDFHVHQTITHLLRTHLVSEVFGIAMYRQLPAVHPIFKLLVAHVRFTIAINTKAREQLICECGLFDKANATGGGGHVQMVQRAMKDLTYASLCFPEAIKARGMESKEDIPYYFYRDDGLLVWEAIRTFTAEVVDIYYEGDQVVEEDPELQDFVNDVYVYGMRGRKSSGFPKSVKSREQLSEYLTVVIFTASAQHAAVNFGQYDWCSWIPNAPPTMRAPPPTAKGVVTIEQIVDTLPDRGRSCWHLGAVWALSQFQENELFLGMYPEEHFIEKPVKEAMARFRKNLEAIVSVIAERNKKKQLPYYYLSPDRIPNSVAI
Procedure: The ability of the isolated compounds 12, 13, and 19 to inhibit 5-LOX and 15-LOX enzymes (IC50 and Ki values, µM) was determined using human recombinant enzyme assay kits (catalog no 60,402 and 10011263, Cayman Chemical, Ann Arbor, MI, USA) following manufacturer’s specifications. Stock solutions were freshly prepared before use, and buffer solution (0.1 M Tris-HCl, PH, 7.4) was used. 10 µL of each compound were prepared, dissolved in the least amount of DMSO and diluted with the stock solution to be in concentrations of (0.001, 0.1, 1, 5, 10 µM) in a final volume of […]. The kinetic parameters for both 5-LOX and 15-LOX were determined by measuring the increase in absorbance at 238 nm in an Agilent 8453 diode array spectrophotometer (Agilent Technologies, Santa Clara, CA, USA). Substrate concentration was ranged from 5 to 50 µM. Substrate concentrations (5, 10, 20, 30, 40, 50 µM) were monitored in triplicate for each sample [37]. Doxorubicin was used as a positive control.

15-LOX = biological target: T2, 15-LOX (Homo sapiens, UniProt O15296); assay: 15-LOX inhibition assay (human recombinant enzyme kit); format: biochemical
T2 construct: purchased Cayman Chemical 10011263
T2 sequence (O15296 1-676): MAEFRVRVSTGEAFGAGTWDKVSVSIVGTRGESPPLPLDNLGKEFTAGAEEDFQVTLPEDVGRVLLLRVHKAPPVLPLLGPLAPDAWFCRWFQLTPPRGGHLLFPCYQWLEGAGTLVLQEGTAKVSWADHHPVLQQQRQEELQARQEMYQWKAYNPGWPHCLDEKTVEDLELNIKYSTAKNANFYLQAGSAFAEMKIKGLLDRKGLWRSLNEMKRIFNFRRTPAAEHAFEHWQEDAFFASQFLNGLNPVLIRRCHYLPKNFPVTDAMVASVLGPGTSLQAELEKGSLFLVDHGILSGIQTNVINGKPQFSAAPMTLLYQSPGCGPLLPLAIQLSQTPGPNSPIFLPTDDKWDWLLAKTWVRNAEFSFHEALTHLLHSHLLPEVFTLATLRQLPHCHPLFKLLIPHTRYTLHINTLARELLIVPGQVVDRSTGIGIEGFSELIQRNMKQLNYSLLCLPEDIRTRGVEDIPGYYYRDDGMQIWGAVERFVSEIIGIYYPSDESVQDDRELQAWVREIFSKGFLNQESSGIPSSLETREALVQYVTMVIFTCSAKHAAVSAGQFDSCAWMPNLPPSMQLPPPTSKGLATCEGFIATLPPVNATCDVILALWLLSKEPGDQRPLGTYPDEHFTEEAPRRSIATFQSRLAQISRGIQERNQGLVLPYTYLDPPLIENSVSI
Procedure: Stock solutions were freshly prepared before use, and buffer solution (0.1 M Tris-HCl, PH, 7.4) was used. 10 µL of each compound were prepared, dissolved in the least amount of DMSO and diluted with the stock solution to be in concentrations of (0.001, 0.1, 1, 5, 10 µM) in a final volume of 210 mL. […] Substrate concentration was ranged from 5 to 50 µM. Substrate concentrations (5, 10, 20, 30, 40, 50 µM) were monitored in triplicate for each sample [37]. Doxorubicin was used as a positive control.

[1] = in vitro, human recombinant enzyme

- Ki (5-LOX; in vitro inhibition constant): 1.4 ± 0.2 µM
- IC50 (5-LOX; [1]): 2.1 ± 0.4 µM
- Ki (15-LOX; in vitro inhibition constant): 4.2 ± 0.1 µM
- IC50 (15-LOX; [1]): 6.7 ± 0.3 µM
SMILES: CCCCC/C=C\C/C=C\C/C=C\C/C=C\CCCCOCC(O)CO[C@H]1O[C@H](CO)[C@@H](O)[C@H](O)[C@H]1O (stereo partly drawn) [compound 19, 1-O-arachidonyl-3-O-(α-D-glucopyranosyl) glycerol]
